This assay deals with PI3Kδ (p110δ/p85α) (Homo sapiens (Human), UniProt O00329). Description: PI3Kδ scintillation proximity assay (Example A3). As to conditions: 20 μM ATP, 20 μM PIP2, 4 nM PI3Kδ; read-out: PI3Kδ SPA IC50. In kind it is biochemical. How it is done:
[γ-^33P]ATP (10 mCi/mL) was purchased from Perkin-Elmer (Waltham, Mass.). […] PI3Kδ (p110δ/p85α) was purchased from Millipore (Bedford, Mass.). ATP, MgCl2, DTT, EDTA, MOPS and CHAPS were purchased from Sigma-Aldrich (St. Louis, Mo.). Wheat Germ Agglutinin (WGA) YSi SPA Scintillation Beads was purchased from GE healthcare life sciences (Piscataway, N.J.).
The kinase reaction was conducted in polystyrene 384-well matrix white plate from Thermo Fisher Scientific in a final volume of 25 μL. Inhibitors were first diluted serially in DMSO and added to the plate wells before the addition of other reaction components. The final concentration of DMSO in the assay was 0.5%. The PI3K assays were carried out at room temperature in 20 mM MOPS, pH 6.7, 10 mM MgCl2, 5 mM DTT and CHAPS 0.03%. Reactions were initiated by the addition of ATP, the final reaction mixture consisted of 20 μM PIP2, 20 μM ATP, 0.2 μCi [γ-^33P]ATP, 4 nM PI3Kδ. […] 25 mM EDTA, 400 μM ATP. The final concentration of SPA beads was 1.0 mg/mL. After the plate sealing, plates were shaken overnight at room temperature and centrifuged at 1800 rpm for 10 minutes, the radioactivity of the product was determined by scintillation counting on Topcount (Perkin-Elmer). IC50 determination was performed by fitting the curve of percent control activity versus the log of the inhibitor concentration using the GraphPad Prism 3.0 software.
On the technique in general: SPA uses beads or plates that emit light when radiolabelled molecules are held near them.

Counter-ions that a name gives are not always drawn. Where only a bound is given, the exact number is not on record here.

PI3Kδ (p110δ/p85α), sequence (O00329 whole entry): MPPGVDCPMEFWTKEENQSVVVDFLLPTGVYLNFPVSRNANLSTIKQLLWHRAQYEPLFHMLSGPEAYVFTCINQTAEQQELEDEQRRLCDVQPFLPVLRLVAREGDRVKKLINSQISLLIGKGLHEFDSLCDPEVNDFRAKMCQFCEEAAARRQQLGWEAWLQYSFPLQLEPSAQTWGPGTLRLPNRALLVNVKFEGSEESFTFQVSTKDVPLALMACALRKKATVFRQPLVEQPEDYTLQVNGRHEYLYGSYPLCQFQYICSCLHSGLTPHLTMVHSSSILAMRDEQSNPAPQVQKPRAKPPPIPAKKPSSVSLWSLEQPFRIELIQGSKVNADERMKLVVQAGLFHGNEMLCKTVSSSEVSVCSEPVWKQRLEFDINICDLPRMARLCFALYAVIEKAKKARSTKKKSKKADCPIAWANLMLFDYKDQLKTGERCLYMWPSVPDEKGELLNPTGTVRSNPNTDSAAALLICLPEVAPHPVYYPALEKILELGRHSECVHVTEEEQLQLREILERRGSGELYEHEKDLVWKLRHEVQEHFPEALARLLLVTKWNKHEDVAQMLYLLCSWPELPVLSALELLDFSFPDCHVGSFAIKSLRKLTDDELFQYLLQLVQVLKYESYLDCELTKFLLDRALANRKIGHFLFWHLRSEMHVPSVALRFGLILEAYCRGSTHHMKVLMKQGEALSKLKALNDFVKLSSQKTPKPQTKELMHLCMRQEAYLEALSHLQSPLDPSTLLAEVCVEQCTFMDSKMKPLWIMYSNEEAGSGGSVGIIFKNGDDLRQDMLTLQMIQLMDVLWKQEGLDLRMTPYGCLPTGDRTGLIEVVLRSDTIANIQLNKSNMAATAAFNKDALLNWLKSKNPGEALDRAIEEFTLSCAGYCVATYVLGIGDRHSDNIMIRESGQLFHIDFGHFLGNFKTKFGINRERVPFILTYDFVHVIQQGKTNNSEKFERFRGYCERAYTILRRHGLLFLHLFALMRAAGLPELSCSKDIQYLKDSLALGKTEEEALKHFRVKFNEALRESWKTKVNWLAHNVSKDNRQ
PI3Kδ (p110δ/p85α), sequence (P27986 whole entry partner): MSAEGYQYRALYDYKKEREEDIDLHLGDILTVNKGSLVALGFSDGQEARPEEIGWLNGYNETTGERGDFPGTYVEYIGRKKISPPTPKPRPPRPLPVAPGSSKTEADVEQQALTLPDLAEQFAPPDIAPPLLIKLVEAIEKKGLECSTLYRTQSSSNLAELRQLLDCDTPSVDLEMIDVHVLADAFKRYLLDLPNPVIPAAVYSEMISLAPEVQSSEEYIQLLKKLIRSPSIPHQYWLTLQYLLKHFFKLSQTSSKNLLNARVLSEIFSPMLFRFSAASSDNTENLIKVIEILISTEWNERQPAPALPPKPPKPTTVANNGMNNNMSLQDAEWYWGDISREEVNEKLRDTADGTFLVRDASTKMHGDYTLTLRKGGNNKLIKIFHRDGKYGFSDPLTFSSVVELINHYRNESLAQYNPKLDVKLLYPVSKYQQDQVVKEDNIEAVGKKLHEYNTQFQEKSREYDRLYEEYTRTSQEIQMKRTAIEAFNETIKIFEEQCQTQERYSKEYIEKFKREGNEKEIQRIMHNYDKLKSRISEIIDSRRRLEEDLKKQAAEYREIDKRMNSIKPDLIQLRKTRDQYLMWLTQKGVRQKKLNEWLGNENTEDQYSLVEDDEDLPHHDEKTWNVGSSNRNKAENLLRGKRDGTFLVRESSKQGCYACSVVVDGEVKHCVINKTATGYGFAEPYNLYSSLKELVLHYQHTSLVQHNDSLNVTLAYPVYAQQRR

As usually defined, the IC50 is the concentration needed to halve the response being measured. In the case of `CCOc1c(C(C)n2nc(C)c3c(N)ncnc32)cc(Cl)c(C#N)c1C1CNC(=O)C1` (single isomer, unassigned) [Example 349, 4-[1-(4-amino-3-methyl-1H-pyrazolo[3,4-d]pyrimidin-1-yl)ethyl]-6-chloro-3-ethoxy-2-(5-oxopyrrolidin-3-yl)benzonitrile], the concentration for half-maximal inhibition (IC50) is ≤ 10 nM.
For `CCOc1c(C(C)n2nc(C)c3c(N)ncnc32)cc(Cl)c(C)c1-c1ccc(C(=O)NC)nc1` (single isomer, unassigned) [Example 199, 5-(3-(1-(4-amino-3-methyl-1H-pyrazolo[3,4-d]pyrimidin-1-yl)ethyl)-5-chloro-2-ethoxy-6-methylphenyl)-N-methylpicolinamide] the value was ≤ 10 nM; for `CCOc1c(C(C)n2nc(C(F)F)c3c(N)ncnc32)cc(Cl)c(F)c1C1CN(CCO)C1` (racemic) [Example 152, 2-[3-(3-{-1-[4-Amino-3-(difluoromethyl)-1H-pyrazolo[3,4-d]pyrimidin-1-yl]ethyl}-5-chloro-2-ethoxy-6-fluorophenyl)azetidin-1-yl]ethanol], ≤ 10 nM; for `COc1c(C(C)n2nc(C)c3c(N)ncnc32)cc(Cl)c(C)c1C1CC1` (single isomer, unassigned) [Example 192, 1-[1-(5-Chloro-3-cyclopropyl-2-methoxy-4-methylphenyl)ethyl]-3-methyl-1H-pyrazolo[3,4-d]pyrimidin-4-amine], 10 to 50 nM.
For `COc1c(C(C)n2ncc3c(N)ncnc32)cc(Cl)c(C)c1-c1ccnc(C(=O)N(C)C)c1` (racemic) [Example 38, 4-{3-[1-(4-amino-1H-pyrazolo[3,4-d]pyrimidin-1-yl)ethyl]-5-chloro-2-methoxy-6-methylphenyl}-N,N-dimethylpyridine-2-carboxamide] the value was 10 to 50 nM.
The figure for `CCOc1c(C(C)n2nc(C)c3c(N)ncnc32)cc(Cl)c(C#N)c1C1CNC(=O)C1` (single isomer, unassigned) [Example 351, 4-[1-(4-amino-3-methyl-1H-pyrazolo[3,4-d]pyrimidin-1-yl)ethyl]-6-chloro-3-ethoxy-2-(5-oxopyrrolidin-3-yl)benzonitrile] is 50 to 200 nM; for `COc1c(C(C)n2nc(C)c3c(N)ncnc32)cc(Cl)c(C#N)c1-c1ccc(C(=O)N(C)C)nc1` (single isomer, unassigned) [313 (2nd peak), 5-{3-[1-(4-amino-3-methyl-1H-pyrazolo[3,4-d]pyrimidin-1-yl)ethyl]-5-chloro-6-cyano-2-methoxyphenyl}-N,N-dimethylpyridine-2-carboxamide] it is ≤ 10 nM; for `COc1c(C(C)n2ccc(=O)c3c(N)ncnc32)cc(Cl)c(C)c1-c1cccc(S(=O)(=O)N(C)C)c1` (racemic) [Example 32, 3′-[1-(4-Amino-5-oxopyrido[2,3-d]pyrimidin-8(5H)-yl)ethyl]-5′-chloro-2′-methoxy-N,N,6′-trimethylbiphenyl-3-sulfonamide bis(trifluoroacetate)] it is ≤ 10 nM.
`CNC(=O)c1ccc(-c2c(C)c(Cl)cc(C(C)n3nc(C)c4c(N)ncnc43)c2OC)cc1F` (single isomer, unassigned) [Example 22, 3′-[1-(4-Amino-3-methyl-1H-pyrazolo[3,4-d]pyrimidin-1-yl)ethyl]-5′-chloro-3-fluoro-2′-methoxy-N,6′-dimethylbiphenyl-4-carboxamide trifluoroacetate]: the 50% inhibitory concentration (IC50) is ≤ 10 nM.
The figure for `COc1c(C(C)n2nc(C)c3c(N)ncnc32)cc(Cl)c(C#N)c1C1CN(CC(C)C)C1` (single isomer, unassigned) [Example 265, 4-[1-(4-Amino-3-methyl-1H-pyrazolo[3,4-d]pyrimidin-1-yl)ethyl]-6-chloro-2-(1-isobutylazetidin-3-yl)-3-methoxybenzonitrile] is ≤ 10 nM.
For `COc1c(C(C)n2nc(C)c3c(N)ncnc32)cc(Cl)c(C)c1-c1cncc(C(=O)N(C)CCN)c1` (single isomer, unassigned) [Example 178, 5-(3-(1-(4-amino-3-methyl-1H-pyrazolo[3,4-d]pyrimidin-1-yl)ethyl)-5-chloro-2-methoxy-6-methylphenyl)-N-(2-aminoethyl)-N-methylnicotinamide] the value was ≤ 10 nM; for `CCOc1c(C(C)n2nc(C)c3c(N)ncnc32)cc(C)c(C#N)c1-c1ccc(C(=O)N(C)C)nc1` (single isomer, unassigned) [314 (2nd peak), 5-{3-[1-(4-amino-3-methyl-1H-pyrazolo[3,4-d]pyrimidin-1-yl)ethyl]-6-cyano-2-ethoxy-5-methylphenyl}-N,N-dimethylpyridine-2-carboxamide], ≤ 10 nM; for `CCOc1c(C(C)n2nc(C)c3c(N)ncnc32)cc(C)c(C#N)c1C1CN(C(=O)C(C)(C)O)C1` (single isomer, unassigned) [Example 322, 4-[1-(4-amino-3-methyl-1H-pyrazolo[3,4-d]pyrimidin-1-yl)ethyl]-3-ethoxy-2-[1-(2-hydroxy-2-methylpropanoyl)azetidin-3-yl]-6-methylbenzonitrile], ≤ 10 nM.
The figure for `CCOc1c(C(C)n2nc(-c3cnn(C)c3)c3c(N)ncnc32)cc(Cl)c(C)c1-c1ccc(C(=O)N(C)C)nc1` (racemic) [Example 49, 5-(3-{1-[4-amino-3-(1-methyl-1H-pyrazol-4-yl)-1H-pyrazolo[3,4-d]pyrimidin-1-yl]ethyl}-5-chloro-2-ethoxy-6-methylphenyl)-N,N-dimethylpyridine-2-carboxamide bis(trifluoroacetate)] is ≤ 10 nM; for `CCOC(=O)N1CC(c2c(C#N)c(Cl)cc(C(C)n3nc(C)c4c(N)ncnc43)c2OCC)C1` (single isomer, unassigned) [Example 253, Ethyl 3-{3-[1-(4-amino-3-methyl-1H-pyrazolo[3,4-d]pyrimidin-1-yl)ethyl]-5-chloro-6-cyano-2-ethoxyphenyl}azetidine-1-carboxylate] it is ≤ 10 nM; for `COc1c(C(C)n2nc(C)c3c(N)ncnc32)cc(Cl)c(C#N)c1C1CN(C2CCC2)C1` (single isomer, unassigned) [Example 267, 4-[1-(4-Amino-3-methyl-1H-pyrazolo[3,4-d]pyrimidin-1-yl)ethyl]-6-chloro-2-(1-cyclobutylazetidin-3-yl)-3-methoxybenzonitrile] it is ≤ 10 nM.
Consider `CCOc1c(C(C)n2nc(C)c3c(N)ncnc32)cc(Cl)c(F)c1C1CN(CCO)C1` (centres unmarked) [Example 144, 2-(3-{3-[1-(4-Amino-3-methyl-1H-pyrazolo[3,4-d]pyrimidin-1-yl)ethyl]-5-chloro-2-ethoxy-6-fluorophenyl}azetidin-1-yl)ethanol], for which the IC50 is ≤ 10 nM.
The figure for `COc1c(C(C)n2nc(C)c3c(N)ncnc32)cc(Cl)c(Cl)c1C1CN(C(C)C)C1` (single isomer, unassigned) [Example 299, 1-{1-[4,5-Dichloro-3-(1-isopropylazetidin-3-yl)-2-methoxyphenyl]ethyl}-3-methyl-1H-pyrazolo[3,4-d]pyrimidin-4-amine] is ≤ 10 nM; for `CCOc1c(C(C)n2nc(-c3ccc(C(=O)N(C)C)nc3)c3c(N)ncnc32)cc(Cl)c(C)c1-c1ccc(C(=O)N(C)C)nc1` (racemic) [Example 56, 5-{4-amino-1-[1-(5-chloro-3-{6-[(dimethylamino)carbonyl]pyridin-3-yl}-2-ethoxy-4-methylphenyl)ethyl]-1H-pyrazolo[3,4-d]pyrimidin-3-yl}-N,N-dimethylpyridine-2-carboxamide tris(trifluoroacetate)] it is 10 to 50 nM.
For `CCOc1c(C(C)n2nc(-c3cnc(N)nc3)c3c(N)ncnc32)cc(Cl)c(C)c1-c1ccc(C(=O)N(C)C)nc1` (racemic) [Example 58, 5-(3-{1-[4-amino-3-(2-aminopyrimidin-5-yl)-1H-pyrazolo[3,4-d]pyrimidin-1-yl]ethyl}-5-chloro-2-ethoxy-6-methylphenyl)-N,N-dimethylpyridine-2-carboxamide tris(trifluoroacetate)] the value was ≤ 10 nM.
Take `COc1c(C(C)n2nc(C)c3c(N)ncnc32)cc(Cl)c(C)c1-c1cnn(CCO)c1` (single isomer, unassigned) [20 (2nd peak), 2-(4-(3-(1-(4-Amino-3-methyl-1H-pyrazolo[3,4-d]pyrimidin-1-yl)ethyl)-5-chloro-2-methoxy-6-methylphenyl)-1H-pyrazol-1-yl)ethanol]: the IC50 lay in the range of 50 to 200 nM.
For `CCOc1c(C(C)n2nc(C)c3c(N)ncnc32)cc(Cl)c(F)c1C1CNC(=O)C1` (single isomer, unassigned) [Example 345, 4-{3-[1-(4-amino-3-methyl-1H-pyrazolo[3,4-d]pyrimidin-1-yl)ethyl]-5-chloro-2-ethoxy-6-fluorophenyl}pyrrolidin-2-one] the value was 50 to 200 nM; for `CCOc1c(C(C)n2nc(-c3cccnc3)c3c(N)ncnc32)cc(Cl)c(C)c1-c1ccc(C(=O)N(C)C)nc1` (racemic) [Example 61, 5-{3-[1-(4-amino-3-pyridin-3-yl-1H-pyrazolo[3,4-d]pyrimidin-1-yl)ethyl]-5-chloro-2-ethoxy-6-methylphenyl}-N,N-dimethylpyridine-2-carboxamide tris(trifluoroacetate)], ≤ 10 nM.
